Laboratory results published in ChEMBL document CHEMBL1154622, “Structure-guided design of potent and selective pyrimidylpyrrole inhibitors of extracellular signal-regulated kinase (ERK) using conformational control” (J Med Chem, 2009).
pKi: −log10 of the molar value.

Assays:
[1] = biological target: Mitogen-activated protein kinase kinase kinase 7 (Homo sapiens, UniProt O43318); assay: Inhibition of TAK1
[2] = biological target: Serine/threonine-protein kinase DCLK2 (Homo sapiens) (UniProt Q8N568); assay: Inhibition of DCAMKL2 at 1 uM
[3] = biological target: Serine/threonine-protein kinase pim-2 (Homo sapiens) (UniProt Q9P1W9); assay: Inhibition of PIM2 at 1 uM
[4] = biological target: Tyrosine-protein kinase Lck (Homo sapiens) (UniProt P06239); assay: Inhibition of LCK at 2 uM
[5] = biological target: Platelet-derived growth factor receptor alpha (Homo sapiens) (UniProt P16234); assay: Inhibition of PDGFRalpha at 2 uM
[6] = biological target: Fibroblast growth factor receptor 4 (Homo sapiens) (UniProt P22455); assay: Inhibition of FGFR4 at 1 uM
[7] = biological target: Misshapen-like kinase 1 (Homo sapiens) (UniProt Q8N4C8); assay: Inhibition of MINK at 1 uM
[8] = biological target: Mitogen-activated protein kinase 8 (Homo sapiens) (UniProt P45983); assay: Inhibition of JNK1 at 2 uM
[9] = biological target: Dual specificity tyrosine-phosphorylation-regulated kinase 1A (Homo sapiens) (UniProt Q13627); assay: Inhibition of DYRK1A at 1 uM
[10] = biological target: Vascular endothelial growth factor receptor 3 (Homo sapiens) (UniProt P35916); assay: Inhibition of FLT-4 at 1 uM
[11] = biological target: Dual specificity tyrosine-phosphorylation-regulated kinase 2 (Homo sapiens) (UniProt Q92630); assay: Inhibition of DYRK2 at 1 uM
[12] = Half life in mouse at 5 mg/kg, iv; type: ADME, organism-based; design: dose 5 mg/kg, route intravenous; conditions: in vivo
[13] = biological target: Cyclin-dependent kinase 5 (Homo sapiens) (UniProt Q00535); assay: Inhibition of CDK5 at 1 uM
[14] = Plasma concentration in mouse at 33 mg/kg, po after 8 hrs; type: ADME, organism-based; design: dose 33 mg/kg, route oral
[15] = Distribution coefficient, log D of the compound; type: physicochemical; conditions: octanol/water
[16] = biological target: Mitogen-activated protein kinase kinase kinase 8 (Homo sapiens, UniProt P41279); assay: Inhibition of COT
[17] = biological target: MAP kinase-activated protein kinase 2 (Homo sapiens) (UniProt P49137); assay: Inhibition of MAPKAPK-2 at 1 uM
[18] = biological target: Mitogen-activated protein kinase kinase kinase 3 (Homo sapiens, UniProt Q99759); assay: Inhibition of MEKK3
[19] = biological target: Tyrosine-protein kinase Blk (Homo sapiens) (UniProt P51451); assay: Inhibition of BLK at 2 uM
[20] = biological target: Serine/threonine-protein kinase PAK 3 (Homo sapiens) (UniProt O75914); assay: Inhibition of PAK3 at 1 uM
[21] = biological target: Calcium/calmodulin-dependent protein kinase type II subunit alpha (Homo sapiens) (UniProt Q9UQM7); assay: Inhibition of CAMK2 at 2 uM
[22] = biological target: Macrophage-stimulating protein receptor (Homo sapiens) (UniProt Q04912); assay: Inhibition of RON at 1 uM
[23] = biological target: Tyrosine-protein kinase Mer (Homo sapiens) (UniProt Q12866); assay: Inhibition of MER at 1 uM
[24] = biological target: Tyrosine-protein kinase Fyn (Homo sapiens) (UniProt P06241); assay: Inhibition of FYN at 2 uM
[25] = biological target: Calcium/calmodulin-dependent protein kinase type IV (Homo sapiens) (UniProt Q16566); assay: Inhibition of CAMK4 at 2 uM
[26] = biological target: Serine/threonine-protein kinase PAK 2 (Homo sapiens) (UniProt Q13177); assay: Inhibition of PAK2 at 1 uM
[27] = biological target: Serine/threonine-protein kinase Sgk2 (Homo sapiens) (UniProt Q9HBY8); assay: Inhibition of SGK2 at 1 uM
[28] = biological target: Dual specificity mitogen-activated protein kinase kinase 7 (Homo sapiens) (UniProt O14733); assay: Inhibition of MKK7 at 2 uM
[29] = biological target: Interleukin-1 receptor-associated kinase 4 (Homo sapiens, UniProt Q9NWZ3); assay: Inhibition of IRAK4
[30] = Plasma concentration in rat at 3 mg/kg, iv after 4 hrs; type: ADME, organism-based; design: dose 3 mg/kg, route intravenous
[31] = biological target: Cyclin-dependent kinase 1 (Homo sapiens) (UniProt P06493); assay: Inhibition of CDK1 at 1 uM
[32] = biological target: Mitogen-activated protein kinase 11 (Homo sapiens) (UniProt Q15759); assay: Inhibition of P38beta at 2 uM
[33] = AUC (0 to 8 hrs) in mouse at 5 mg/kg, iv; type: ADME, organism-based; design: time < 8 hr, dose 5 mg/kg, route intravenous; conditions: plasma
[34] = biological target: Protein-tyrosine kinase 2-beta (Homo sapiens) (UniProt Q14289); assay: Inhibition of PYK2 at 1 uM
[35] = biological target: Serine/threonine-protein kinase N2 (Homo sapiens) (UniProt Q16513); assay: Inhibition of PRK2 at 2 uM
[36] = Plasma concentration in mouse at 5 mg/kg, iv after 8 hrs; type: ADME, organism-based; design: dose 5 mg/kg, route intravenous
[37] = biological target: Receptor-type tyrosine-protein kinase FLT3 (Homo sapiens, UniProt P36888); assay: Inhibition of FLT3
[38] = Inhibition of GSK3
[39] = Plasma concentration in mouse at 5 mg/kg, iv after 4 hrs; type: ADME, organism-based; design: dose 5 mg/kg, route intravenous
[40] = biological target: Mitogen-activated protein kinase kinase kinase kinase 4 (Homo sapiens) (UniProt O95819); assay: Inhibition of MAP4K4 at 1 uM
[41] = biological target: Dual specificity mitogen-activated protein kinase kinase 6 (Homo sapiens) (UniProt P52564); assay: Inhibition of MKK6 at 2 uM
[42] = biological target: Serine/threonine-protein kinase pim-1 (Homo sapiens) (UniProt P11309); assay: Inhibition of PIM1 at 1 uM
[43] = biological target: Tyrosine-protein kinase JAK2 (Homo sapiens, UniProt O60674); assay: Inhibition of JAK2
[44] = biological target: RAC-gamma serine/threonine-protein kinase (Homo sapiens, UniProt Q9Y243); assay: Inhibition of AKT3 at 1 uM
[45] = biological target: Protein kinase C gamma type (Homo sapiens) (UniProt P05129); assay: Inhibition of PKCgamma at 2 uM
[46] = biological target: Cytoplasmic tyrosine-protein kinase BMX (Homo sapiens) (UniProt P51813); assay: Inhibition of BMX at 1 uM
[47] = Plasma concentration in rat at 10 mg/kg, po after 4 hrs; type: ADME, organism-based; design: dose 10 mg/kg, route oral
[48] = biological target: Protein kinase C theta type (Homo sapiens) (UniProt Q04759); assay: Inhibition of PKCtheta at 2 uM
[49] = biological target: Vascular endothelial growth factor receptor 2 (Homo sapiens, UniProt P35968); assay: Inhibition of KDR
[50] = biological target: Ribosomal protein S6 kinase alpha-2 (Homo sapiens) (UniProt Q15349); assay: Inhibition of RSK3 at 1 uM
[51] = biological target: Tyrosine-protein kinase HCK (Homo sapiens) (UniProt P08631); assay: Inhibition of HCK at 1 uM
[52] = Half life in rat at 3 mg/kg, iv; type: ADME, organism-based; design: dose 3 mg/kg, route intravenous; conditions: in vivo
[53] = biological target: Serine/threonine-protein kinase Sgk3 (Homo sapiens) (UniProt Q96BR1); assay: Inhibition of SGK3 at 1 uM

Chain of Macrophage-stimulating protein receptor (Homo sapiens) (Q04912 25-304 limits assumed): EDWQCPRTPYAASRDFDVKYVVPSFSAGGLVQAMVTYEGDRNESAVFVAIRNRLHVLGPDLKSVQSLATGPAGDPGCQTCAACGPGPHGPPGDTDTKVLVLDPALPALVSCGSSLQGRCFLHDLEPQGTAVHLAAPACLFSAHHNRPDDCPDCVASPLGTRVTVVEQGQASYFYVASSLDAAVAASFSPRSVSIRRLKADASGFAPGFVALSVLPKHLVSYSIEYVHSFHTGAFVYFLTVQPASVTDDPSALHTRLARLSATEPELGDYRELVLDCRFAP
Chain of Macrophage-stimulating protein receptor (Homo sapiens) (Q04912 310-1400 limits assumed): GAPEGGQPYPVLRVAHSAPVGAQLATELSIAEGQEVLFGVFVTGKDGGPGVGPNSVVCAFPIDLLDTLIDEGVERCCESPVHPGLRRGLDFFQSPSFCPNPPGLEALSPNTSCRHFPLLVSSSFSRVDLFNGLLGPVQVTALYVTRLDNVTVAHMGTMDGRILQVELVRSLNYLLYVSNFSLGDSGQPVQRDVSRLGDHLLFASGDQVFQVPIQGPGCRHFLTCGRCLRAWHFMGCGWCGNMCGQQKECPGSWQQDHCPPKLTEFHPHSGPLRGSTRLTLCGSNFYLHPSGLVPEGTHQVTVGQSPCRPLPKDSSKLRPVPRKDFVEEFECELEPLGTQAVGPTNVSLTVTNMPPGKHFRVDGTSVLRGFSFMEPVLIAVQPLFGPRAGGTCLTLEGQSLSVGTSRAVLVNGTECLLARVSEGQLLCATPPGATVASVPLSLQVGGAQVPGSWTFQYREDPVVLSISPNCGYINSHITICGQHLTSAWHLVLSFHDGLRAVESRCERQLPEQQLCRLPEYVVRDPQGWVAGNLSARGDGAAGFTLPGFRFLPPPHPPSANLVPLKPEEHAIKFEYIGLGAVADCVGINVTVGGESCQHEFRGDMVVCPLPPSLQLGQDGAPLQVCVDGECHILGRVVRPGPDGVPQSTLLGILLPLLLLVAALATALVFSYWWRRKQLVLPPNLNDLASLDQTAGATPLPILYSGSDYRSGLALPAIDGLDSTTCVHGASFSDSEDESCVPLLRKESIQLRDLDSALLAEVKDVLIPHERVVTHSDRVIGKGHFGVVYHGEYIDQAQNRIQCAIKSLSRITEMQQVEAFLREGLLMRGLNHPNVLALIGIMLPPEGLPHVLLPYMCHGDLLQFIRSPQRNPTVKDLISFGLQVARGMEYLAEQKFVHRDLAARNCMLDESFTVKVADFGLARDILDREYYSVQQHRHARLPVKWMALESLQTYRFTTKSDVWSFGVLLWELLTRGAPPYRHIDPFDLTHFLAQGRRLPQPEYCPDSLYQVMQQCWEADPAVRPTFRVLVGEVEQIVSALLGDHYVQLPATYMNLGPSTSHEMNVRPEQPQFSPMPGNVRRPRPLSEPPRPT
Chain of Dual specificity tyrosine-phosphorylation-regulated kinase 2 (Homo sapiens) (Q92630 whole entry): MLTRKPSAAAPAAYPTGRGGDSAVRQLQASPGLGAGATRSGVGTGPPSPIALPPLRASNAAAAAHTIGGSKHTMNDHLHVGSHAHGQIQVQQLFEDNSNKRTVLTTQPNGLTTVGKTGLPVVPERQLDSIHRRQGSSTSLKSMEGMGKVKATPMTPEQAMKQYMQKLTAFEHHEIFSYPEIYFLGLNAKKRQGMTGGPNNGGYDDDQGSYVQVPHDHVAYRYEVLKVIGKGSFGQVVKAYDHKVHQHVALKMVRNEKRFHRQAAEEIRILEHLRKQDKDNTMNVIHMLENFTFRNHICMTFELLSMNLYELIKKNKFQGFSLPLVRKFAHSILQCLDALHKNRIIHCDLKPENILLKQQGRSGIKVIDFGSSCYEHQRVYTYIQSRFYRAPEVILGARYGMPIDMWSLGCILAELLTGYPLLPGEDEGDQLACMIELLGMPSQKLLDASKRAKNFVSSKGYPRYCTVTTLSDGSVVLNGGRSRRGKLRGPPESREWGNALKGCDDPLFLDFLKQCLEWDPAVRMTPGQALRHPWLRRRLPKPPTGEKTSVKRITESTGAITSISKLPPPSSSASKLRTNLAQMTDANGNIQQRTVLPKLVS
Chain of Mitogen-activated protein kinase kinase kinase kinase 4 (Homo sapiens) (O95819 2-1239 limits assumed): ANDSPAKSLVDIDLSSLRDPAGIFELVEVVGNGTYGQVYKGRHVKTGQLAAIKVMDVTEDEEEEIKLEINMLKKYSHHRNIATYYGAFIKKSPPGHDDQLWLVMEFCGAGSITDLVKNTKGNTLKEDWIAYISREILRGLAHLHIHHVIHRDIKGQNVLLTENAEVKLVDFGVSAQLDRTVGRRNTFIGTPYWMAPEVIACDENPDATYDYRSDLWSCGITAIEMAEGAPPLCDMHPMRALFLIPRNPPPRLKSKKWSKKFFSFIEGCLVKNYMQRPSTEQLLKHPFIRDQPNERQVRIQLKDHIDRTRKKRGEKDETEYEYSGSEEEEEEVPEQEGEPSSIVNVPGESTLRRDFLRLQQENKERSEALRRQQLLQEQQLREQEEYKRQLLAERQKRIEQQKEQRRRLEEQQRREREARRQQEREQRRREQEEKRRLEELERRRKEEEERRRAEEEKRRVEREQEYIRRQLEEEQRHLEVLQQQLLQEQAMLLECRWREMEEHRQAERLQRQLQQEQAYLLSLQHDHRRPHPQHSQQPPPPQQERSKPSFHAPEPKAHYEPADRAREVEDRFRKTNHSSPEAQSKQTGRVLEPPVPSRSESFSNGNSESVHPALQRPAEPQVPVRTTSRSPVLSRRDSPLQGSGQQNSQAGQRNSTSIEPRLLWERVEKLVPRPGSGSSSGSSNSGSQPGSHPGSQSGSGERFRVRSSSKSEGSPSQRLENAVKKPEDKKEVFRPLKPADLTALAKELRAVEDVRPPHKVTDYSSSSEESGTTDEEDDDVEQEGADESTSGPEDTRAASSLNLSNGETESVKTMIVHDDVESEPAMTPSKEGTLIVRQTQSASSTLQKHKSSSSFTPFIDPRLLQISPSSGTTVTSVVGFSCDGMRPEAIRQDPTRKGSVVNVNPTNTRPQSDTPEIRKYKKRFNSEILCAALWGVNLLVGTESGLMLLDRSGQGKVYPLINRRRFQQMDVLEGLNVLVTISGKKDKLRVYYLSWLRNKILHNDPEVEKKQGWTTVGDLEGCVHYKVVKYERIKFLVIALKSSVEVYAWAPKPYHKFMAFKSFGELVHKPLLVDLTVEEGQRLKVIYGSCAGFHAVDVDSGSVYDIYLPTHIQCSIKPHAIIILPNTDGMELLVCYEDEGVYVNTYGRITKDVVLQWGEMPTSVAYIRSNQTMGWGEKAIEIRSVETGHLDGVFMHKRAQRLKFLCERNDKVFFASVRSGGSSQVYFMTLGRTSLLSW
Chain of Calcium/calmodulin-dependent protein kinase type II subunit alpha (Homo sapiens) (Q9UQM7 whole entry): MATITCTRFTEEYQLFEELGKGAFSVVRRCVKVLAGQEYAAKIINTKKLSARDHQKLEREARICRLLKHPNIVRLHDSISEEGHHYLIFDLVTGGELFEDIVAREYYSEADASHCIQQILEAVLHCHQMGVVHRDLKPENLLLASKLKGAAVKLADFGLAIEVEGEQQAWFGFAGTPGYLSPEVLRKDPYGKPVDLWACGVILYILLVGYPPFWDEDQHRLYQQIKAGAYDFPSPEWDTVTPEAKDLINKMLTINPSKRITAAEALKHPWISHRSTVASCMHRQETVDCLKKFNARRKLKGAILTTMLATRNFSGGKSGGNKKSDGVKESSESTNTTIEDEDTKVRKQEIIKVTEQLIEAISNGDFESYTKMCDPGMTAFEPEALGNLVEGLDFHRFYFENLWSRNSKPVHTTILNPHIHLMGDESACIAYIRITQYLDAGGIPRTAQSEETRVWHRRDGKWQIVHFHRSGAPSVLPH
Chain of Tyrosine-protein kinase JAK2 (O60674 whole entry): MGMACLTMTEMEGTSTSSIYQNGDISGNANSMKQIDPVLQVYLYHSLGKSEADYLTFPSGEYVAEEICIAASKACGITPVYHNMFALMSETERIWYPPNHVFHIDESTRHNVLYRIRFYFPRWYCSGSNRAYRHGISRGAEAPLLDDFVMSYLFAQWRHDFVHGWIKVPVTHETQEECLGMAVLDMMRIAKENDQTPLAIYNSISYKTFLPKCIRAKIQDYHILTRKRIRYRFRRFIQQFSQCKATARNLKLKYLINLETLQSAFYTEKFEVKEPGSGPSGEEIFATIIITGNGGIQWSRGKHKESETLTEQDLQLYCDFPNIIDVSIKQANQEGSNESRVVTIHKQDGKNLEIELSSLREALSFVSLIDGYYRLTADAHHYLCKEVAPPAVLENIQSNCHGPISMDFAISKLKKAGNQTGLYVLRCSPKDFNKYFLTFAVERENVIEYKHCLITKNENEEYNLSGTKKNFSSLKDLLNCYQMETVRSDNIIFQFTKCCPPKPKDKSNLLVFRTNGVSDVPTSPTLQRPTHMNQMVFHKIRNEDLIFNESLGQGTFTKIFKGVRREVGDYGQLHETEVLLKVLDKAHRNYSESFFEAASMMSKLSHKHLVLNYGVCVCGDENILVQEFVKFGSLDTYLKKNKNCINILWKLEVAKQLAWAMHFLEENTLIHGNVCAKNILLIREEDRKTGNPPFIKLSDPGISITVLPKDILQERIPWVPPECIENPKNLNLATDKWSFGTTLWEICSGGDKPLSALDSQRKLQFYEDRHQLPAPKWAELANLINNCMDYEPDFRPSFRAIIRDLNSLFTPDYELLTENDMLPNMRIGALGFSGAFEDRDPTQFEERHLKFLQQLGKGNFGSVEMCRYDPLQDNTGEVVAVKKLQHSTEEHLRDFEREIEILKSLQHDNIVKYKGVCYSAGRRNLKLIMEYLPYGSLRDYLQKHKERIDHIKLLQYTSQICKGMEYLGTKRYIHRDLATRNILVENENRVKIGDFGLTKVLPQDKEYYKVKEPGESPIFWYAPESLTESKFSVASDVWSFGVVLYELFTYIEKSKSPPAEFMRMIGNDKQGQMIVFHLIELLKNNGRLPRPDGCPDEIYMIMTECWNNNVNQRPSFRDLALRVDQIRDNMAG

Cc1cnc(Nc2ccc(F)cc2Cl)nc1-c1c[nH]c(C(=O)N[C@H](CO)c2cccc(Cl)c2)c1
pKi [1]: 5.52
inhibition [2]: 1%
inhibition [3]: 3%
inhibition [4]: 3%
inhibition [5]: 3%
inhibition [6]: 0.3%
inhibition [7]: 18%
inhibition [8]: 34%
inhibition [9]: 3%
inhibition [10]: 8%
inhibition [11]: 3%
half-life [12]: 1.6 h
inhibition [13]: 24%
concentration at 8 h [14]: 122 ng/mL
logD [15]: 4.3
pKi [16]: < 5.40
inhibition [17]: 0%
pKi [18]: < 5.40
inhibition [19]: 7%
inhibition [20]: 3%
inhibition [21]: 1%
inhibition [22]: 1%
inhibition [23]: 9%
inhibition [24]: 11%
inhibition [25]: 0%
inhibition [26]: 0%
inhibition [27]: 41%
inhibition [28]: 6%
pKi [29]: < 5.40
concentration at 4 h [30]: 123 ng/mL
inhibition [31]: 7%
inhibition [32]: 25%
AUC(0-t) at 8 h [33]: 1600 ng·h/mL
inhibition [34]: 6%
inhibition [35]: 14%
concentration at 8 h [36]: 17 ng/mL
pKi [37]: 5.85
pKi [38]: 6.40
concentration at 4 h [39]: 79 ng/mL
inhibition [40]: 18%
inhibition [41]: 9%
inhibition [42]: 0%
pKi [43]: < 5.40
inhibition [44]: 0%
inhibition [45]: 11%
inhibition [46]: 3%
concentration at 4 h [47]: 329 ng/mL
inhibition [48]: 17%
pKi [49]: < 5.40
inhibition [50]: 7%
inhibition [51]: 3%
half-life [52]: 3.2 h
inhibition [53]: 2%
